Literature values, collected in patent US20080160083A1, “COMPOSITION AND METHOD FOR TREATMENT OF PREMENSTRUAL SYMPTOMS” (priority 2007, published 2008).

Key:
[1] = women taking daily vitamin B6 supplements for PMS whose blood levels of B6 were above normal; Dalton, Lancet 1985
[2] = all adults; Institute of Medicine 1998

neuropathy present (number of women) [1]: 23 of 58
Structure (SMILES): Cc1ncc(CO)c(CO)c1O [vitamin B6, 4,5-bis(hydroxymethyl)-2-methylpyridin-3-ol]
upper tolerable intake level (UL) [2]: 100 mg per day
